According to PubChem BioAssay AID248 (DTP/NCI, 2004):
Several values for one entry are separate records, joined by “and”; a condition that tells them apart may be missing. Identical values can stand only once. Toxic doses and inconclusive results are not listed. Cut-off read from the data, not from the text of the source: active = T/C of 150% or more; inactive = T/C below 125%.

Tested on: L1210 leukemia ip in BDF1 mice, survival T/C
Experiment: NCI In Vivo Anticancer Drug Screen. Data for tumor model L1210 Leukemia (intraperitoneal) in B6D2F1 (BDF1) mice
Conditions: endpoint: mean survival time, higher = longer survival
Outline: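 Each compound was tested against a transplantable tumor grown in mice. The endpoint was survival, with treated animals benchmarked against vehicle controls as a simple ratio.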

[1] = dose: 100.0 mg/kg/injection, schedule: Q01DX001 (ip), vehicle: carboxymethylcellulose (CMC)
[2] = dose: 200.0 mg/kg/injection, schedule: Q01DX001 (ip), vehicle: carboxymethylcellulose (CMC)
[3] = dose: 400.0 mg/kg/injection, schedule: Q01DX001 (ip), vehicle: carboxymethylcellulose (CMC)
[4] = dose: 100.0 mg/kg/injection, schedule: Q01DX001 (ip), vehicle: saline
[5] = dose: 200.0 mg/kg/injection, schedule: Q01DX001 (ip), vehicle: saline
[6] = dose: 400.0 mg/kg/injection, schedule: Q01DX001 (ip), vehicle: saline
[7] = dose: 100.0 mg/kg/injection, schedule: Q04DX002 (ip), vehicle: Klucel (hydroxypropylcellulose) (HPC)
[8] = dose: 200.0 mg/kg/injection, schedule: Q04DX002 (ip), vehicle: Klucel (hydroxypropylcellulose) (HPC)
[9] = dose: 50.0 mg/kg/injection, schedule: Q01DX009 (ip), vehicle: saline with Tween-80
[10] = dose: 100.0 mg/kg/injection, schedule: Q01DX009 (ip), vehicle: saline with Tween-80
[11] = dose: 100.0 mg/kg/injection, schedule: Q04DX003 (ip), vehicle: saline
[12] = dose: 200.0 mg/kg/injection, schedule: Q01DX009 (ip), vehicle: saline with Tween-80
[13] = dose: 200.0 mg/kg/injection, schedule: Q04DX002 (ip), vehicle: saline with Tween-80
[14] = dose: 200.0 mg/kg/injection, schedule: Q04DX003 (ip), vehicle: saline
[15] = dose: 400.0 mg/kg/injection, schedule: Q01DX009 (ip), vehicle: saline with Tween-80
[16] = dose: 100.0 mg/kg/injection, schedule: Q04DX003 (ip), vehicle: Klucel (hydroxypropylcellulose) (HPC)
[17] = dose: 6.25 mg/kg/injection, schedule: Q01DX009 (ip), vehicle: saline
[18] = dose: 12.5 mg/kg/injection, schedule: Q01DX009 (ip), vehicle: saline
[19] = dose: 25.0 mg/kg/injection, schedule: Q01DX009 (ip), vehicle: saline
[20] = dose: 50.0 mg/kg/injection, schedule: Q01DX009 (ip), vehicle: saline
[21] = dose: 100.0 mg/kg/injection, schedule: Q04DX003 (ip), vehicle: saline with Tween-80
[22] = dose: 200.0 mg/kg/injection, schedule: Q04DX003 (ip), vehicle: saline with Tween-80
[23] = dose: 400.0 mg/kg/injection, schedule: Q04DX003 (ip), vehicle: saline with Tween-80

Measured: T/C

O=c1nc(NO)ccn1C1CCCO1 (stereo unspecified)
inactive: [1] 96 % of control | [2] 100 % of control | [3] 96 % of control

Cc1c(O)c(CN2CCOCC2)cc(CN2CCOCC2)c1O
inactive: [4] 86 % of control | [5] 90 % of control | [6] 86 % of control

CC(C)c1ccc(NC(=S)NCCO)cc1
inactive: [7] 105 % of control | [8] 105 % of control | dose: 400.0 mg/kg/injection, schedule: Q04DX002 (ip), vehicle: Klucel (hydroxypropylcellulose) (HPC) 105 % of control

O=C(/C(=C\c1ccccc1)CO)c1ccccc1
inactive: dose: 12.5 mg/kg/injection, schedule: Q01DX009 (ip), vehicle: saline with Tween-80 89 % of control | dose: 25.0 mg/kg/injection, schedule: Q01DX009 (ip), vehicle: saline with Tween-80 89 % of control | [9] 87 % of control | dose: 62.0 mg/kg/injection, schedule: Q01DX009 (ip), vehicle: saline with Tween-80 106 % of control

COc1ccc(OC)c(/C=N/NC(=O)CCCCCCCCC(=O)N/N=C/c2cc(OC)ccc2OC)c1
inactive: dose: 100.0 mg/kg/injection, schedule: Q01DX001 (ip), vehicle: saline with Tween-80 90 % of control | [10] 101 % of control and 106 % of control | dose: 100.0 mg/kg/injection, schedule: Q04DX002 (ip), vehicle: saline with Tween-80 94 % of control and 108 % of control | [11] 92 % of control | dose: 200.0 mg/kg/injection, schedule: Q01DX001 (ip), vehicle: saline with Tween-80 92 % of control | [12] 97 % of control and 90 % of control | [13] 95 % of control and 90 % of control | [14] 92 % of control | dose: 400.0 mg/kg/injection, schedule: Q01DX001 (ip), vehicle: saline with Tween-80 87 % of control | [15] 94 % of control | dose: 400.0 mg/kg/injection, schedule: Q04DX002 (ip), vehicle: saline with Tween-80 86 % of control | dose: 400.0 mg/kg/injection, schedule: Q04DX003 (ip), vehicle: saline 87 % of control

COc1cccc(C2CCN(C)C2)c1 (stereo unspecified)
inactive: dose: 6.25 mg/kg/injection, schedule: Q01DX009 (ip), vehicle: Klucel (hydroxypropylcellulose) (HPC) 110 % of control | dose: 12.5 mg/kg/injection, schedule: Q01DX009 (ip), vehicle: Klucel (hydroxypropylcellulose) (HPC) 108 % of control | dose: 25.0 mg/kg/injection, schedule: Q01DX009 (ip), vehicle: Klucel (hydroxypropylcellulose) (HPC) 103 % of control | [16] 105 % of control | dose: 200.0 mg/kg/injection, schedule: Q04DX003 (ip), vehicle: Klucel (hydroxypropylcellulose) (HPC) 103 % of control

CC1(C)C2(C(N)=O)C(=O)NC(=O)C12C(=O)O (stereo unspecified)
inactive: [13] 92 % of control

CCOC(OCC)c1nc(N)c2cnn(C)c2n1
inactive: [17] 89 % of control | [18] 97 % of control | [19] 106 % of control and 110 % of control | [20] 94 % of control | dose: 100.0 mg/kg/injection, schedule: Q04DX002 (ip), vehicle: saline 112 % of control

CN(C(=O)NCCCl)c1cccc2c1CCCC2
inactive: dose: 100.0 mg/kg/injection, schedule: Q01DX001 (ip), vehicle: Klucel (hydroxypropylcellulose) (HPC) 97 % of control | dose: 200.0 mg/kg/injection, schedule: Q01DX001 (ip), vehicle: Klucel (hydroxypropylcellulose) (HPC) 105 % of control | dose: 400.0 mg/kg/injection, schedule: Q01DX001 (ip), vehicle: Klucel (hydroxypropylcellulose) (HPC) 111 % of control

COc1cccc(/C(=C/c2ccc([N+](=O)[O-])cc2)C(=O)Nc2ccc(S(=O)(=O)F)cc2)c1
inactive: dose: 100.0 mg/kg/injection, schedule: Q01DX009 (ip), vehicle: Klucel (hydroxypropylcellulose) (HPC) 101 % of control | dose: 200.0 mg/kg/injection, schedule: Q01DX009 (ip), vehicle: Klucel (hydroxypropylcellulose) (HPC) 90 % of control | dose: 400.0 mg/kg/injection, schedule: Q01DX009 (ip), vehicle: Klucel (hydroxypropylcellulose) (HPC) 90 % of control

Cc1ccc(S(=O)(=O)Nc2c(C)cc([N+](=O)[O-])cc2C)cc1
inactive: dose: 50.0 mg/kg/injection, schedule: Q01DX001 (ip), vehicle: carboxymethylcellulose (CMC) 119 % of control | [1] 96 % of control | [2] 102 % of control | [3] 100 % of control

CC(C)(C)CCN1C(=O)c2ccccc2C1=O
inactive: [4] 94 % of control | dose: 100.0 mg/kg/injection, schedule: Q01DX009 (ip), vehicle: saline 100 % of control | [5] 92 % of control | dose: 200.0 mg/kg/injection, schedule: Q01DX009 (ip), vehicle: saline 97 % of control | [6] 92 % of control | dose: 400.0 mg/kg/injection, schedule: Q01DX009 (ip), vehicle: saline 97 % of control

CN1CCN(CCC=C2c3ccccc3Sc3ccc(S(=O)(=O)N(C)C)cc32)CC1
inactive: dose: 0.39 mg/kg/injection, schedule: Q01DX009 (ip), vehicle: saline 114 % of control | dose: 0.78 mg/kg/injection, schedule: Q01DX009 (ip), vehicle: saline 101 % of control | dose: 1.56 mg/kg/injection, schedule: Q01DX009 (ip), vehicle: saline 121 % of control | dose: 3.12 mg/kg/injection, schedule: Q01DX009 (ip), vehicle: saline 114 % of control | [17] 114 % of control | [18] 102 % of control | dose: 25.0 mg/kg/injection, schedule: Q04DX003 (ip), vehicle: saline 95 % of control | dose: 50.0 mg/kg/injection, schedule: Q04DX003 (ip), vehicle: saline 95 % of control | [1] 121 % of control | [11] 122 % of control | [2] 103 % of control | [14] 104 % of control | [3] 118 % of control

O=C(O)C1CCCN1[N+](=O)[O-] (stereo unspecified)
inactive: [4] 100 % of control | [5] 104 % of control | [6] 110 % of control

O=S1(=O)C=C(Br)C1
inactive: [7] 94 % of control and 106 % of control | [8] 106 % of control

CSc1nnc(SC)s1
inactive: [21] 104 % of control | [22] 93 % of control | [23] 93 % of control

CC1CC(=O)NC(N)=N1 (stereo unspecified)
inactive: dose: 100.0 mg/kg/injection, schedule: Q01DX Z (ip), vehicle: saline 110 % of control | dose: 200.0 mg/kg/injection, schedule: Q01DX Z (ip), vehicle: saline 92 % of control

CCCC(=O)OCC1OC(n2cc(C)c(=O)[nH]c2=O)CC1OC(=O)CCC (stereo unspecified)
inactive: [1] 104 % of control | [2] 93 % of control

N#CCN1CCCCC1
inactive: [19] 115 % of control | [20] 112 % of control

O=C1c2ccccc2C(=O)N1/N=C/c1cc(Cl)cc(Cl)c1O
inactive: dose: 75.0 mg/kg/injection, schedule: Q01DX001 (ip), vehicle: saline 91 % of control | dose: 150.0 mg/kg/injection, schedule: Q01DX001 (ip), vehicle: saline 93 % of control | dose: 300.0 mg/kg/injection, schedule: Q01DX001 (ip), vehicle: saline 93 % of control

c1cc(OC2CCCCO2)ccc1OC1CCCCO1 (stereo unspecified)
inactive: [10] 98 % of control | [21] 95 % of control | [12] 97 % of control | [22] 93 % of control | [15] 97 % of control | [23] 95 % of control

CCOC(=O)Nc1cc(Nc2ccc(Cl)cc2)c2ncc(C)nc2n1
inactive: dose: 25.0 mg/kg/injection, schedule: Q04DX003 (ip), vehicle: Klucel (hydroxypropylcellulose) (HPC) 102 % of control | dose: 50.0 mg/kg/injection, schedule: Q04DX003 (ip), vehicle: Klucel (hydroxypropylcellulose) (HPC) 102 % of control | [16] 96 % of control

O=C(Cc1ccccc1S(=O)(=O)Nc1ccccc1)c1ccccc1
inactive: dose: 100.0 mg/kg/injection, schedule: Q01DX001 (ip), vehicle: steriod suspending solution 96 % of control | dose: 200.0 mg/kg/injection, schedule: Q01DX001 (ip), vehicle: steriod suspending solution 86 % of control | dose: 400.0 mg/kg/injection, schedule: Q01DX001 (ip), vehicle: steriod suspending solution 91 % of control

COC1=CC2C3=CC(C)C4C(=O)OC(=O)C4C3C1C1C(=O)OC(=O)C21 (stereo unspecified)
inactive: [9] 105 % of control | [10] 94 % of control
